Earlier results on two molecules are cited in US8962594B2, “Method of using nutritional compounds dihydroquercetin (taxifolin) and arabinogalactan in combination with dihydroquercetin (taxifolin) to reduce and control cardiometabolic risk factors associated with metabolic syndrome and hypercholesterolemia” (Flavitpure, Inc., priority 2012, dated 2015).

Broadly, the EC50 is the concentration giving half of the maximal effect.

The test system of data set [1] is IL-1β. The settings on record: LPS-stimulated PBMC, pre-treated.
The test system of data set [2] is TNF-α. The settings on record: LPS-stimulated PBMC, pre-treated.
For data set [3], the system named is rats. Particulars: rats treated with high levels for long periods of time.
Data set [4] concerns PPARa. The settings on record: supplementation of HepG2 cells.
Data set [5] has as its system DGAT-2 mRNA.
For data set [6], the system named is RBCs. Particulars: remaining hemolysis; vehicle 75.7±5.2%, P<0.001.
Data set [7] relates to Glutathione prexidase (GPx). Particulars: 25 and 50 μM.
The subject of data set [8] is CNS-derived mouse HT22 cells. The settings on record: read-out: EC50 for protection of HT22 cells from a similar insult.
Data set [9] has as its system RBCs. Particulars: pre-incubation of RBCs with water-soluble compound for 30 min; remaining hemolysis.
Data set [10] deals with apolipoprotein B (apoB).
Data set [11] deals with diacylglycerol acyltransferase (DGAT). Particulars: non-competitive.
The subject of data set [12] is HepG2 cells. The settings on record: 200 umol, within 24 h.
For data set [13], the system named is DGAT-1 mRNA.
Data set [14] relates to apolipoprotein A-I (apoA-I). The settings on record: pulse-chase, HepG2 cells.
Data set [15] has as its system RGC-5 cells. Particulars: read-out: EC50 for protection of RGC-5 cells from oxidative stress induced by GSH depletion.
Data set [16] concerns microsomal TG synthesis.
Data set [17] addresses T1, microsomal triglyceride transfer protein (MTP) (Homo sapiens, UniProt P55157).
T1 construct: endogenous in cells; host or cells: HepG2
T1 sequence (P55157 19-894): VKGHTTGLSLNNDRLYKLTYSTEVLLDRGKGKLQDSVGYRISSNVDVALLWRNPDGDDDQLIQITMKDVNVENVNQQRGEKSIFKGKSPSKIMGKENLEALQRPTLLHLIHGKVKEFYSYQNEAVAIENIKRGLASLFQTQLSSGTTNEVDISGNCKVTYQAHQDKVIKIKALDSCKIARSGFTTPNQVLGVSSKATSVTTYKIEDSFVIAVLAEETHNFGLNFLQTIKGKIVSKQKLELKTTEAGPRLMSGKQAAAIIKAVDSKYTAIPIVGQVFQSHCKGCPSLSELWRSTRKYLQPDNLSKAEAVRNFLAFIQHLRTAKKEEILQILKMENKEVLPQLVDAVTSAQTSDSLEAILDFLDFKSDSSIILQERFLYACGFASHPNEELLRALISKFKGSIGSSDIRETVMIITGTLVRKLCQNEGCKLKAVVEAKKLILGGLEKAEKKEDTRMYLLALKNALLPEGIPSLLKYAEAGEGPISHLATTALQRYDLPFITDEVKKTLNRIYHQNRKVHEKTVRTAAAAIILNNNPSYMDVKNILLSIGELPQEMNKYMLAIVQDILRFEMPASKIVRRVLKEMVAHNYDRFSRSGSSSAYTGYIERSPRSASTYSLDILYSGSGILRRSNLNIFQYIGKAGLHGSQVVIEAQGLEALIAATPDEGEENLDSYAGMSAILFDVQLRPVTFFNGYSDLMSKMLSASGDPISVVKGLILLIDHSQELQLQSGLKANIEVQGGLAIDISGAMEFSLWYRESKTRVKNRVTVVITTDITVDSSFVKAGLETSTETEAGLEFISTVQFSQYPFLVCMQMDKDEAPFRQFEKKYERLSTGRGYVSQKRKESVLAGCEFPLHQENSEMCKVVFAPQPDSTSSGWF

Data set [18] addresses T2, HMG-CoA reductase (Homo sapiens, UniProt P04035).
T2 construct: endogenous in cells; host or cells: HepG2
T2 sequence (P04035 1-888): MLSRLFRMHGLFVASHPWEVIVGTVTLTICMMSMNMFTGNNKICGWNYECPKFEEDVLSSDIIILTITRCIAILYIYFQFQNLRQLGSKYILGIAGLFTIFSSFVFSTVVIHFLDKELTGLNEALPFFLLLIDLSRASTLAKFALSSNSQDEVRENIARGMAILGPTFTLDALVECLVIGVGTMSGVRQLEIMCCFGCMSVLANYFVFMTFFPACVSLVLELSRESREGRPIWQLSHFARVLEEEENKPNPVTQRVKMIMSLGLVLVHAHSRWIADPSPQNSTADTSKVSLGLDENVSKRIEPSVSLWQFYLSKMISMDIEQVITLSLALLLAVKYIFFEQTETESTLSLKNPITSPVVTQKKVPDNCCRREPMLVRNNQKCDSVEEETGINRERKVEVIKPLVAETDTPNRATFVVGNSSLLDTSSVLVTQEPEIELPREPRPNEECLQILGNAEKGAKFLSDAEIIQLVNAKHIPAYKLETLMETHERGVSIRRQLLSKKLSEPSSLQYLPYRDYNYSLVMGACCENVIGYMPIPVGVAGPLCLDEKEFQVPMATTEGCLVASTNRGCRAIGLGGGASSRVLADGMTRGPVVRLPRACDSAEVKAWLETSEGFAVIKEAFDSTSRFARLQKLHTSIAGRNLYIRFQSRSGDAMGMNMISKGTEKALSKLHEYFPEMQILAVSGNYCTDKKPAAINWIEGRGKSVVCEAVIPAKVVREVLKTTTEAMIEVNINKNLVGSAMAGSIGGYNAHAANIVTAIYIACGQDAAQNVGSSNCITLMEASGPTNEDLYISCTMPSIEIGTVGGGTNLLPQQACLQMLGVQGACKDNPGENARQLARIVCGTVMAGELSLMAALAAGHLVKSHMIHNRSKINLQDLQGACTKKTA

Molecules are shown by their SMILES. Bounds are passed on as bounds.

As to `O=C(O)Cc1ccc(O)c(O)c1` [3,4-DHPAA, 3,4-dihydroxyphenylacetic acid], the “inhibition of IL-1β secretion” value in [1] is on record as 97.9%. Also, the “mean inhibition of the secretion of TNF-α” value in data set [2] is 86.4%.
Regarding `O=C1c2c(O)cc(O)cc2OC(c2ccc(O)c(O)c2)C1O` (racemic) [Dihydroquercetin (taxifolin)], the toxic effects entry in [3] was “No toxic effects”. In addition, the PPARa expression entry in data set [4] is reported as “increase”. Further, the “DGAT-2 mRNA expression” value in [5] is “essentially unchanged”. Moreover, the “phospholipase C-induced hemolysis” value in [6] is recorded as 45.4±10.0%. Further, the “Glutathione prexidase (GPx) protein level” value in data set [7] is given as “significantly increased”. The EC50 is above 50 µM in data set [8] and 30 µM in [15]. Besides, in [9], the “peroxyl radical (AAPH)-induced hemolysis reduced to” value was 32.5±5.6%. Besides, in data set [10] (basal and lipid-rich conditions, 200 micromol/L), the “reduction of apoB secretion” value is recorded as “up to 63%”. Moreover, in [10] (pulse-chase, HepG2 cells), the “average reduction in labeled apoB in the medium” value is listed as 61+−8%. Moreover, in data set [11], the “decrease in DGAT activity (change)” value is recorded as −35%. In data set [12], the “inhibition of cholesterol synthesis” value is reported as 86+−3%. Besides, the “DGAT-1 mRNA expression” value in data set [13] is “essentially unchanged”. Besides, the “increase of ApoA-I secretion” value in [14] was 36+−10%. For the same molecule, in [16], the “TG transfer into the microsomal lumen (change)” value is on record as −26%. Moreover, the “inhibition of microsomal TG synthesis” value in [16] is listed as 37%. The “inhibition of MTP” value in data set [17] is 41%. Moreover, the “inhibition of HMG-CoA reductase activity” value in [18] is 47+−7%.
